What was measured:
[1] = test system: PP1/PP2A-chimera (CRHM2); experiment: Inhibition of recombinant PP1/PP2A chimera; format: biochemical, human PP1 / bovine PP2A; settings: enzyme printed as rPP2Ac-1
Protocol: FIG. 6: Sequence of a PP1/PP2A chimera. To characterize the fostriecin binding site, the N-terminal region of PP1 was ligated to the C-terminal region of PP2A (in bold) to produce a PP1/PP2A-chimera (CRHM2). Previous studies indicate that the okadaic acid binding domain is contained in the C-terminal region of PP2A that was incorporated into CRHM2.
FIG. 7: Effect of fostriecin and okadaic acid on the activity of recombinant CRHM2. CRHM2 activity was assayed in the presence of the indicated amount of fostriecin (FIG. 7A) or okadaic acid (FIG. 7B). […] Assays were conducted as described in FIG. 5. Each point represents the mean ± SE (n>6).
(§1) PP1, an enzyme highly homologous to PP2A, could be expressed in a stable manner and in relatively large amounts. Thus, human PP1 was cloned and subcloned into a bacterial expression vector as was done for PP2A. […] To create a hybrid enzyme (a PP1/PP2A chimera) that could be expressed stably like rPP1 but would bind okadaic acid with high affinity like PP2A, a number of mutant forms of PP1 and PP2A were constructed. Then, through mutational analysis, the okadaic acid binding domain of PP2A was identified. The okadaic acid binding domain from PP2A was cloned behind the amino terminal domain of PP1. The hybrid, referred to as CRHM-2, was subcloned into an expression vector. Restriction analysis of CRHM-2 confirmed the identity of the construct.
In these studies, the bacterial expressed PP1/PP2A hybrid enzyme was produced by growing appropriate strains of transformed E. coli at 18° C. for 48 hours in LB-media containing 50 μg/ml ampicillin, 1 mM MnCl2, and 50 μM IPTG. The bacteria were lysed with a French Press, and after centrifugation at 15,000×g for 45 min, the phosphatase was partially purified via ion-exchange [High Q (BioRad) and MonoQ (Pharmacia)] and affinity [Heparin-Sepharose (Pharmacia)] chromatography. The sensitivity of the chimera to fostriecin was determined employing the same protein phosphatase assay employed with endogenous PP1 or PP2A, with the addition of MnCl2 (1 mM) to the assay buffer.

[2] = test system: rPP1; experiment: Inhibition of recombinant PP1; format: biochemical; settings: bacterially expressed human PP1
Source text: as §1

For C=C1[C@@H](O)[C@@H]2O[C@]3(CC[C@H](/C=C/[C@@H](C)[C@@H]4CC(C)=C[C@@]5(O[C@H](C[C@@](C)(O)C(=O)O)CC[C@H]5O)O4)O3)CC[C@H]2O[C@@H]1[C@@H](O)C[C@H](C)[C@H]1O[C@@]2(CCCCO2)CC[C@H]1C [okadaic acid, reference compound], the “binding affinity to the recombinant hybrid enzyme” value [1] was “comparable affinity to PP2A” and the “sensitivity of rPP1 to inhibition, relative to PP2A” value [2] was “less sensitive to inhibition by okadaic acid than PP2A”.

— patent publication US5914242A, “Method for diminishing myocardial infarction using protein phosphatase inhibitors” (priority 1997, dated 1999)
